The subject of series [1] is HIV-1 luciferase reporter virus in U87-CD4-CCR5 cells. In words: HIV Replication (luciferase) assay. It is filed as cell-based. On the procedure:
Luciferase Replication Assay:
Plasmids encoding the full length genome of HIV-1 pNL-4-Luc with the gp120 V-3 loop replaced by the Bgl II fragment of HIV-1 ADA, YU-2 or HxB (ADA-Luc-FL, YU-2-Luc-FL and HxB-Luc-FL) are obtained from Dr. Susan Pontow (Washington University, St. Louis Mo.). Replication-competent luciferase reporter virus stocks are generated by transfection of plasmids into 293T cells using Superfect (Qiagen) or Mirus transfection reagents. Viral stocks are collected 48 hours following transfection and titered for luciferase production on U-87-CCR5 or CXCR4 cells. U87-CD4-CCR5 cells (10^4/well) are plated in 96-well cell culture plates and incubated overnight. Media is removed and replaced with 50 μl of fresh culture media (DMEM, 10% FCS) and 50 μl of compound diluted in culture medium. Cells are incubated with compound at 37° C. for 1 hour. The resultant supernatant is removed and replaced with 20 μl of media containing compound and infected with an equal volume of diluted or undiluted virus stock at 37° C. for 3-4 hours. The cells are washed once with DMEM, and 200 μl of media containing compound is added. The cultures are incubated for 3 days, the cells lysed in luciferase lysis buffer (Promega, Madison, Wis.) and transferred to Immulon plates (Dynex Technologies, Chantilly Va.). An equal volume of luciferase substrate (Promega, Madison Wis.) is added to lysates and the plates read immediately in a Wallac Luminometer. Fifty and ninety percent inhibitory concentrations are determined using GraphPad PRISM software.

[2] abbreviates: Human immunodeficiency virus 1, U87/CD4/CCR5, read-out: HIV Replication (luciferase) IC50.
Setting [3] is: Human immunodeficiency virus 1, U87/CD4/CCR5.

Where a name gives a salt, the structure may show the parent alone. Read-outs that look alike come from different tables or passages of the source.

As usually defined, the melting point is the temperature, or range, at which the solid turns liquid. `Cc1ncnc(C)c1C(=O)N1CCC(C)(N2CCC(N(Cc3ccccc3)C3CCCN(S(=O)(=O)C4CC4)C3)CC2)CC1` (stereo not drawn) (as salt: HCl) [Compound 112] registered a melting point of 190 to 195 °C.
Same read-out and setting: next, `Cc1ncnc(C)c1C(=O)N1CCC(C)(N2CCC(N(C)c3ccc(Cl)c4cccnc34)CC2)CC1` (as salt: HCl): 164 to 167 °C (dec.).
On to `CCCN(c1cccc2cccnc12)C1CCN(C2(C)CCN(C(=O)c3c(C)ncnc3C)CC2)CC1` (as salt: HCl) [Compound 110], for which the melting point is 181 °C (dec.).
The compound `Cc1ncnc(C)c1C(=O)N1CCC(C)(N2CCC(N(c3ccccc3)c3ccc(C(F)(F)F)nc3)CC2)CC1` (as salt: HCl) [Compound 69] showed a melting point of 189 to 193 °C.
Compound `Cc1ncnc(C)c1C(=O)N1CCC(C)(N2CCC(N(Cc3ccccc3)c3ccc(Br)cc3)CC2)CC1` (as salt: HCl) yielded a melting point of 168 to 170 °C.
A word on the IC50: it is the midpoint of a concentration-inhibition curve. In the case of `Cc1ncnc(C)c1C(=O)N1CCC(C)(N2CCC(N(Cc3ccccc3)c3ccc(CCN)cc3)CC2)CC1` [Compound 55], the IC50 in series [1] (setting [2]) is 3.5 nM.
On to `CCc1ccc(N(Cc2ccccc2)C2CCN(C3(C)CCN(C(=O)c4c(C)ncnc4C)CC3)CC2)cc1` [Compound 41], for which the IC50 in series [1] (setting [2]) is less than 0.1 nM.
Take `Cc1ncnc(C)c1C(=O)N1CCC(C)(N2CCC(N(Cc3ccccc3)c3ccc(C(=O)O)cc3)CC2)CC1` [Compound 60]: in series [1] (setting [2]), the IC50 came out at 27 nM.
For `Cc1ncnc(C)c1C(=O)N1CCC(C)(N2CCC(N(Cc3ccccc3)c3ccc(CCNS(C)(=O)=O)cc3)CC2)CC1` [Compound 47], the IC50 in series [1] (setting [2]) came out at 0.05 nM.
Take `Cc1ncnc(C)c1C(=O)N1CCC(C)(N2CCC(N(Cc3ccccc3)C3CCCN(S(=O)(=O)C4CC4)C3)CC2)CC1` (stereo not drawn) [Compound 112]: the IC50 in series [1] (setting [3]) was 30 nM.
In turn, `Cc1ncnc(C)c1C(=O)N1CCC(C)(N2CCC(N(Cc3ccccc3)c3ccncc3)CC2)CC1` (as salt: HCl) [Compound 108] gave a melting point of 182 to 189 °C.
In the case of `Cc1cc(-c2cc[n+]([O-])cc2)cc(C)c1C(=O)N1CCC(C)(N2CCC(N(c3ccccc3)c3ccc(C(F)(F)F)cn3)CC2)CC1` [Compound 83], the IC50 in series [1] (setting [2]) amounted to 0.05 nM.
Regarding `Cc1ncnc(C)c1C(=O)N1CCC(C)(N2CCC(N(Cc3ccccc3)c3cccc(C(=O)N4CCOCC4)c3)CC2)CC1` [Compound 62], the IC50 in series [1] (setting [2]) was determined as 4 nM.
For the compound `Cc1ncnc(C)c1C(=O)N1CCC(C)(N2CCC(N(Cc3ccccc3)c3cccc(C#N)c3)CC2)CC1` [Compound 44], in series [1] (setting [2]), the IC50 stood at 0.1 nM.
Still for that read-out and setting: next, `Cc1ncnc(C)c1C(=O)N1CCC(C)(N2CCC(N(c3ccccc3)c3ccc(Oc4ccccc4)cc3)CC2)CC1` [Compound 105]: 5 nM; `Cc1ncnc(C)c1C(=O)N1CCC(C)(N2CCC(N(Cc3ccccc3)C3CCN(S(=O)(=O)c4cccc(Cl)c4)CC3)CC2)CC1` [Compound 1]: 0.1 nM.
For `Cc1ncnc(C)c1C(=O)N1CCC(C)(N2CCC(N(Cc3ccccc3)c3ccc(Oc4ccccc4)cc3)CC2)CC1` [Compound 43], in series [1] (setting [2]), the IC50 stood at 2 nM.
Still for that read-out and setting: next, `CCOc1ccc(N(Cc2ccccc2)C2CCN(C3(C)CCN(C(=O)c4c(C)ncnc4C)CC3)CC2)cc1` [Compound 40]: less than 0.1 nM; `Cc1ncnc(C)c1C(=O)N1CCC(C)(N2CCC(N(c3ccccc3)c3ccc(I)cc3)CC2)CC1` [Compound 107]: 1 nM.
Turning to `Cc1ncnc(C)c1C(=O)N1CCC(C)(N2CCC(N(Cc3ccccc3)c3ccc(CCNS(=O)(=O)CC(F)(F)F)cc3)CC2)CC1` [Compound 57], in series [1] (setting [2]), the IC50 worked out at 0.4 nM.
Turning to `Cc1ncnc(C)c1C(=O)N1CCC(C)(N2CCC(N(Cc3ccc(F)cc3)c3cccc(Br)c3)CC2)CC1` [Compound 19], the IC50 in series [1] (setting [2]) was determined as 0.5 nM.
As to `Cc1ncnc(C)c1C(=O)N1CCC(C)(N2CCC(N(Cc3ccccc3)c3ccc(C(C)(C)C)cc3)CC2)CC1` [Compound 21], the IC50 in series [1] (setting [2]) came out at 1 nM.
For `COc1ccc(N(c2ccccc2)C2CCN(C3(C)CCN(C(=O)c4c(C)ncnc4C)CC3)CC2)cc1Cl` [Compound 91], in series [1] (setting [2]), the IC50 is 0.12 nM.
As for `Cc1ncnc(C)c1C(=O)N1CCC(C)(N2CCC(N(Cc3ccccc3)c3cccc(C(=O)Nc4ccccc4)c3)CC2)CC1` [Compound 65], the IC50 in series [1] (setting [2]) amounted to 2 nM.
Consider `Cc1ncnc(C)c1C(=O)N1CCC(C)(N2CCC(N(CC3CC3)C3CCN(S(=O)(=O)c4cccc(Cl)c4)CC3)CC2)CC1` [Compound 3], for which, in series [1] (setting [2]), the IC50 turned out to be 32 nM.
Consider `Cc1ncnc(C)c1C(=O)N1CCC(C)(N2CCC(N(c3ccccc3)c3ccc(F)cc3)CC2)CC1` [Compound 79], for which, in series [1] (setting [2]), the IC50 worked out at 1 nM.
Still for that read-out and setting: next, `Cc1ncnc(C)c1C(=O)N1CCC(C)(N2CCC(N(Cc3ccccc3)c3ccc(Cl)cc3)CC2)CC1` [Compound 12]: 0.2 nM; `Cc1ncnc(C)c1C(=O)N1CCC(C)(N2CCC(N(Cc3ccccc3)c3cccc(C(=O)O)c3)CC2)CC1` [Compound 59]: 4 nM.
With `Cc1ncnc(C)c1C(=O)N1CCC(C)(N2CCC(N(Cc3ccccc3)c3cccc(Br)c3)CC2)CC1` [Compound 17], the IC50 in series [1] (setting [2]) stood at 0.1 nM.
For `Cc1ncnc(C)c1C(=O)N1CCC(C)(N2CCC(N(Cc3ccccc3)c3ccc(C(F)(F)F)cc3)CC2)CC1` [Compound 10], the IC50 in series [1] (setting [2]) came to 0.5 nM.
For the compound `Cc1ncnc(C)c1C(=O)N1CCC(C)(N2CCC(N(Cc3ccccc3)c3cccc4cccnc34)CC2)CC1` [Compound 53], in series [1] (setting [2]), the IC50 is 0.6 nM.
Turning to `Cc1ncnc(C)c1C(=O)N1CCC(C)(N2CCC(N(CC3CCCCC3)c3ccc(Br)cc3)CC2)CC1` [Compound 98], the IC50 in series [1] (setting [2]) is 2 nM.
Same read-out and setting: next, `Cc1ncnc(C)c1C(=O)N1CCC(C)(N2CCC(N(Cc3ccccc3)c3ccc(F)c(F)c3)CC2)CC1` [Compound 25]: 0.1 nM; `Cc1ncnc(C)c1C(=O)N1CCC(C)(N2CCC(N(Cc3ccccc3)c3cccc(C(=O)NO)c3)CC2)CC1` [Compound 64]: 4 nM; `Cc1cccc(N(c2ccccc2)C2CCN(C3(C)CCN(C(=O)c4c(C)ncnc4C)CC3)CC2)c1` [Compound 96]: 0.3 nM.
Still for that read-out and setting: next, `Cc1cccc(N(Cc2ccccc2)C2CCN(C3(C)CCN(C(=O)c4c(C)ncnc4C)CC3)CC2)c1` [Compound 39]: 0.1 nM; `Cc1ncnc(C)c1C(=O)N1CCC(C)(N2CCC(N(Cc3ccccn3)c3ccc(Br)cc3)CC2)CC1` [Compound 89]: 0.8 nM; `Cc1ncnc(C)c1C(=O)N1CCC(C)(N2CCC(N(Cc3ccccc3)c3cccc(C(F)(F)F)c3)CC2)CC1` [Compound 20]: 0.2 nM.
In the case of `Cc1ncnc(C)c1C(=O)N1CCC(C)(N2CCC(N(Cc3cccnc3)c3ccccc3)CC2)CC1` [Compound 80], the IC50 in series [1] (setting [2]) stood at 2 nM.
Consider `Cc1ncnc(C)c1C(=O)N1CCC(C)(N2CCC(N(Cc3ccccc3)c3cc(C(F)(F)F)cc(C(F)(F)F)c3)CC2)CC1` [Compound 34], for which, in series [1] (setting [2]), the IC50 is 10 nM.
On to `Cc1ncnc(C)c1C(=O)N1CCC(C)(N2CCC(N(Cc3ccccc3)c3ccc(Cl)c4cccnc34)CC2)CC1` [Compound 51], for which the IC50 in series [1] (setting [2]) turned out to be 0.32 nM.
On to `Cc1cc(-c2cc[n+]([O-])cc2)cc(C)c1C(=O)N1CCC(C)(N2CCC(N(Cc3ccccc3)c3ccc(C(F)(F)F)nc3)CC2)CC1` [Compound 16], for which the IC50 in series [1] (setting [2]) was determined as 0.5 nM.
`CCCN(c1cccc2cccnc12)C1CCN(C2(C)CCN(C(=O)c3c(C)ncnc3C)CC2)CC1` [Compound 110] displayed an IC50 in series [1] (setting [3]) of 23 nM.
As to `Cc1ncnc(C)c1C(=O)N1CCC(C)(N2CCC(N(c3ccccc3)c3ccc(Br)cn3)CC2)CC1` [Compound 71], the IC50 in series [1] (setting [2]) turned out to be 0.6 nM.
Consider `Cc1ncnc(C)c1C(=O)N1CCC(C)(N2CCC(N(Cc3ccccc3)c3ccccc3F)CC2)CC1` [Compound 42], for which the half-maximal inhibitory concentration (IC50) in series [1] (setting [2]) came to 0.8 nM.
In the case of `Cc1ncnc(C)c1C(=O)N1CCC(C)(N2CCC(N(Cc3ccccc3)C3CCN(Cc4ccccc4)CC3)CC2)CC1` [Compound 4], in series [1] (setting [2]), the IC50 was 1.7 nM.
`Cc1ncnc(C)c1C(=O)N1CCC(C)(N2CCC(N(Cc3ccccn3)c3ccccc3)CC2)CC1` [Compound 90]: the IC50 in series [1] (setting [2]) came to 3.4 nM.
On the same count and under the same terms, next, `Cc1ncnc(C)c1C(=O)N1CCC(C)(N2CCC(N(Cc3ccccc3)c3ccc(C(F)(F)F)nc3)CC2)CC1` [Compound 13]: 0.2 nM; `Cc1ncnc(C)c1C(=O)N1CCC(C)(N2CCC(N(Cc3ccncc3)c3ccccc3)CC2)CC1` [Compound 86]: 75 nM.
For `Cc1ncnc(C)c1C(=O)N1CCC(C)(N2CCC(N(c3ccccc3)c3ccccc3F)CC2)CC1` [Compound 104], in series [1] (setting [2]), the IC50 was found to be 3 nM.
Regarding `CCOc1ccc(N(c2ccccc2)C2CCN(C3(C)CCN(C(=O)c4c(C)ncnc4C)CC3)CC2)cc1` [Compound 99], in series [1] (setting [2]), the concentration for half-maximal inhibition (IC50) was found to be 0.3 nM.
On the same count and under the same terms, next, `Cc1ncnc(C)c1C(=O)N1CCC(C)(N2CCC(N(c3ccccc3)c3cc(Cl)cc(Cl)c3)CC2)CC1` [Compound 92]: 4.1 nM.
`Cc1ncnc(C)c1C(=O)N1CCC(C)(N2CCC(N(Cc3ccccc3)C3CCN(S(=O)(=O)c4ccccc4Cl)CC3)CC2)CC1` [Compound 5]: the IC50 in series [1] (setting [2]) was found to be 2.1 nM.
For the compound `COc1ccc(N(Cc2ccccc2)C2CCN(C3(C)CCN(C(=O)c4c(C)ncnc4C)CC3)CC2)cc1Cl` [Compound 29], the concentration for half-maximal inhibition (IC50) in series [1] (setting [2]) came to 0.1 nM.

These data come from patent US7442703B2, “Piperidine derivatives useful as CCR5 antagonists” (priority 2001, dated 2008).
